Data: patent publication US9062046B2, “Substituted imidazoquinoline derivatives as kinase inhibitors” (Piramal Enterprises Limited, priority 2011, dated 2015)

Columns and labels:
[1] = test system: A2780 (ovarian cell line); assay: Cytotoxicity assay (propidium iodide assay), A2780; type: cell-based; conditions: Homo sapiens, A2780 cells, 48 h treatment
Outline: (§1)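 A2780 and PC3 cells, 3000/well, were treated with compound for 48 h after 18-24 h attachment. After washing, propidium iodide 7 μg/ml was added, followed by freeze-thaw at −70 °C and a fluorescence read. Viability was taken relative to untreated wells, with IC50 derived from the curves.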

p110α = target: T1, p110α (Homo sapiens, UniProt P42336); assay: p110α radioactive lipid kinase assay (PI3Kα); type: biochemical; conditions: 25 μM ATP, 2 h at RT, read-out: IC50 in μM (PI3 kinase activity)
T1 construct: purchased Upstate Millipore
Procedure: Protocol for Kinase Assay (PI3Kα)
p110α Radioactive Lipid Kinase Assay
The assay was designed as in the reference, Journal of Biomolecular Screening, 2002, Vol. 7, No. 5, 441-450, the disclosure of which is incorporated by reference for the teaching of the assay.
The p110α biochemical assay was performed using a radioactive assay measuring the incorporation of ^32P into the p110α substrate, phosphatidylinsoitol (PI). For the generation of IC50 curves, the reaction was performed in a 96-well MaxiSorp plates. Plates were pre-coated with 4 μg/well of a 1:1 ratio of phosphatidylinositol (PI: Avanti #840042C) and phosphatidylserine (PS: Avanti #840032C) diluted in CHCl3. Equal amount of p110α (Upstate Millipore) protein was added to each well, containing reaction buffer (50 mM MOPSO pH7.0, 100 mM NaCl, 4 mM MgCl2, 0.1% (w/v) BSA) whereas, for negative control, only reaction buffer was added. Test compounds (referred to by example nos. in the following table 1) dissolved in DMSO were treated at nine-point dose responses. Reactions were initiated by the addition of 25 μM ATP solution containing 50 μCi/ml [γ-^32P]-ATP and incubated at RT for 2 h with gentle shaking. Reactions were finally terminated by the addition of 50 mM EDTA stock solution. Plates were washed 3 times with TBS buffer. The plates were air dried, Microscint 0 (Perkin Elmer) was added to each well and the plates were sealed. The radioactivity incorporated into the immobilized PI substrate was determined with Top Count (Perkin Elmer). Inhibition was calculated using the following equation: % inhibition=(Dcpm−Tcpm)/(Dcpm)×100 • Tcpm=^32P-cpm in presence of test compounds • Dcpm=^32P-cpm in DMSO control (enzyme control deducted) Results: IC50 values of test compounds for PI3 kinase activity is indicated in Table 1.

PC3 (prostate cell line) = assay: Cytotoxicity assay (propidium iodide assay), PC3; type: cell-based; conditions: Homo sapiens, PC-3, PC3 cells, 48 h treatment
Outline: as §1

T1 sequence (P42336 whole entry, species assumed): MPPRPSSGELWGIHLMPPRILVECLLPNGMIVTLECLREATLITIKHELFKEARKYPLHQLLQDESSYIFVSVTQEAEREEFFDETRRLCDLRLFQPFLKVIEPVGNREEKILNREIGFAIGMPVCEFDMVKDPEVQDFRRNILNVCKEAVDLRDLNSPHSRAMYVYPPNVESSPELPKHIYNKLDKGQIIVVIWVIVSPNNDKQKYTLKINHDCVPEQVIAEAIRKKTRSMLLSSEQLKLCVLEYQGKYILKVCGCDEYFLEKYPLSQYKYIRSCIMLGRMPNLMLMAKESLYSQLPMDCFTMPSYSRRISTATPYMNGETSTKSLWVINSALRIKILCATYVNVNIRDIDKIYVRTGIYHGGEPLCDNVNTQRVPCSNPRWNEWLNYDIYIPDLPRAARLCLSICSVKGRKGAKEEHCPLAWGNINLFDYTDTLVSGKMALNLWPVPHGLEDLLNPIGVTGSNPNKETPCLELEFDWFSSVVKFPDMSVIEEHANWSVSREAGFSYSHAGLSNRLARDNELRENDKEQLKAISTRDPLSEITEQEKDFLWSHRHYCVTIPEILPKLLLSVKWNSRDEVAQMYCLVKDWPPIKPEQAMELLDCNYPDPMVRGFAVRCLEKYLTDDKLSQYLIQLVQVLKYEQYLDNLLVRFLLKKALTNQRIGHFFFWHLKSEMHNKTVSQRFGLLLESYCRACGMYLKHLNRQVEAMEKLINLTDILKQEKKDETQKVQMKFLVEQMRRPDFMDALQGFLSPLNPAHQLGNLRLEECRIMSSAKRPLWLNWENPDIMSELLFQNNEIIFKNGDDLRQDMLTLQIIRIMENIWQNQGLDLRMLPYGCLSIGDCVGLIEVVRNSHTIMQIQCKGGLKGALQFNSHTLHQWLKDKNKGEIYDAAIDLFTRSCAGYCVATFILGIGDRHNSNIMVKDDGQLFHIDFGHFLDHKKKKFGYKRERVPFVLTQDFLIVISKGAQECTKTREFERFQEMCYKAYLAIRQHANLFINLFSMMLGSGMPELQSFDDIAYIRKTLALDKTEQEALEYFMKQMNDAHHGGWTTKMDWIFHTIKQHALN
T1 sequence (P27986 whole entry partner, species assumed): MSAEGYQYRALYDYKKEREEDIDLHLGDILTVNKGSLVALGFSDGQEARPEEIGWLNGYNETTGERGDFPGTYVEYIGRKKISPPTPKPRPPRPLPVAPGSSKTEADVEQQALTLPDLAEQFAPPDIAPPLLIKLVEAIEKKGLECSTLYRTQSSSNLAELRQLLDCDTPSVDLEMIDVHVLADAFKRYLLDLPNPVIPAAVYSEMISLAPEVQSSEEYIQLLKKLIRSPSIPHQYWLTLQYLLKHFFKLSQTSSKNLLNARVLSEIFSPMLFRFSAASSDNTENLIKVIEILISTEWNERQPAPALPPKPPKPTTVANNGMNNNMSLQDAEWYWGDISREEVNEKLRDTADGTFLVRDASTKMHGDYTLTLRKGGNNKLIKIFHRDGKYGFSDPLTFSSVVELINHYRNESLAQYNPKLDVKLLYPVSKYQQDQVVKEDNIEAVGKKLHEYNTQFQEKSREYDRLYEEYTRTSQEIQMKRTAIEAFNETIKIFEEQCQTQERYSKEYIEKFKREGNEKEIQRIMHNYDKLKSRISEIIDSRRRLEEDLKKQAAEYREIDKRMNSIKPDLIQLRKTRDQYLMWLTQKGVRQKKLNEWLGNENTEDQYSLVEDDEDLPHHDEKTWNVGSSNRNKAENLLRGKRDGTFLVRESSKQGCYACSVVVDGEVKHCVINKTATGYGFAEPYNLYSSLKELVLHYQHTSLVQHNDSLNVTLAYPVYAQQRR

| SMILES | IC50 (p110α) | IC50 [1] | IC50 (PC3 (prostate cell line)) | inhibition at 1 µM ([1]; 1 μM) | inhibition at 1 µM (PC3 (prostate cell line); 1 μM) |
| --- | --- | --- | --- | --- | --- |
| Cn1c(=NC#N)n(-c2ccc(C(C)(C)C#N)nc2)c2c3cc(-c4cnc(N)c(C(F)(F)F)c4)ccc3ncc21 [Example 5, N-(8-(6-amino-5-(trifluoromethyl)pyridin-3-yl)-1-(6-(2-cyanopropan-2-yl)pyridin-3-yl)-3-methyl-1H-imidazo[4,5-c]quinolin-2(3H)-ylidene)cyanamide] | ≤ 0.01 µM | ≤ 0.5 µM | ≤ 0.5 µM |  |  |
| Cn1c(=NC#N)n(-c2ccc(C(C)(C)C#N)nc2)c2c3cc(-c4cnc(N)nc4)ccc3ncc21 [Example 75, N-(8-(2-aminopyrimidin-5-yl)-1-(6-(2-cyanopropan-2-yl)pyridin-3-yl)-3-methyl-1H-imidazo[4,5-c]quinolin-2(3H)-ylidene)cyanamide] | 0.01 to 1 µM | ≤ 0.5 µM | ≤ 0.5 µM |  |  |
| Cn1c(=NC#N)n(-c2ccc(C(C)(C)C#N)nc2)c2c3cc(-c4cncc(C(F)(F)F)c4)ccc3ncc21 [Example 70] | ≤ 0.01 µM | ≤ 0.5 µM | ≤ 0.5 µM |  |  |
| Cn1c(=NC#N)n(-c2ccc(C(C)(C)C#N)nc2)c2c3cc(-c4ccc(N5CCCCC5)nc4)ccc3ncc21 [Example 76, N-(1-(6-(2-cyanopropan-2-yl)pyridin-3-yl)-3-methyl-8-(6-(piperidin-1-yl)pyridin-3-yl)-1H-imidazo[4,5-c]quinolin-2(3H)-ylidene)cyanamide] | 0.01 to 1 µM | ≤ 0.5 µM | 0.5 to 2 µM |  |  |
| Cn1c(=NC#N)n(-c2ccc(OC(F)(F)F)cc2)c2c3cc(-c4cnc(N)c(C(F)(F)F)c4)ccc3ncc21 [Example 105, N-(8-(6-amino-5-(trifluoromethyl)pyridin-3-yl)-3-methyl-1-(4-(trifluoromethoxy)phenyl)-1H-imidazo[4,5-c]quinolin-2(3H)-ylidene)cyanamide] |  | ≤ 0.5 µM | ≤ 0.5 µM |  |  |
| COc1ccc(-c2ccc3ncc4c(c3c2)n(-c2ccc(C(C)(C)C#N)nc2)c(=NC#N)n4C)cn1 [Example 51, N-(1-(6-(2-cyanopropan-2-yl)pyridin-3-yl)-8-(6-methoxypyridin-3-yl)-3-methyl-1H-imidazo[4,5-c]quinolin-2(3H)-ylidene)cyanamide] |  |  |  | ≥ 70% | 30 to 70% |
| Cn1c(=NC#N)n(-c2ccc(C(C)(C)C#N)nc2)c2c3cc(-c4ccc5[nH]ccc5c4)ccc3ncc21 [Example 73, N-(1-(6-(2-cyanopropan-2-yl)pyridin-3-yl)-8-(1H-indol-5-yl)-3-methyl-1H-imidazo[4,5-c]quinolin-2(3H)-ylidene)cyanamide] | ≤ 0.01 µM | ≤ 0.5 µM | ≤ 0.5 µM |  |  |

Second part, led by results:

| IC50 (p110α) | SMILES | IC50 [1] | IC50 (PC3 (prostate cell line)) | inhibition at 1 µM ([1]; 1 μM) | inhibition at 1 µM (PC3 (prostate cell line); 1 μM) |
| --- | --- | --- | --- | --- | --- |
| ≤ 0.01 µM | COc1ncc(-c2ccc3ncc4c(c3c2)n(-c2ccc(C(C)(C)C#N)nc2)c(=NC#N)n4C)cc1NS(=O)(=O)c1ccccc1 [Example 125, N-(5-(2-(cyanoimino)-1-(6-(2-cyanopropan-2-yl)pyridin-3-yl)-3-methyl-2,3-dihydro-1H-imidazo[4,5-c]quinolin-8-yl)-2-methoxypyridin-3-yl)benzenesulfonamide] | ≤ 0.5 µM | ≤ 0.5 µM |  |  |
| ≤ 0.01 µM | Cn1c(=NC#N)n(-c2ccc(C(C)(C)C#N)nc2)c2c3cc(-c4ccc5cc[nH]c5c4)ccc3ncc21 [Example 79, N-(1-(6-(2-cyanopropan-2-yl)pyridin-3-yl)-8-(1H-indol-6-yl)-3-methyl-1H-imidazo[4,5-c]quinolin-2(3H)-ylidene)cyanamide] | ≤ 0.5 µM | ≤ 0.5 µM |  |  |
| 0.01 to 1 µM | COc1ncc(-c2ccc3ncc4c(c3c2)n(-c2ccc(C(C)(C)C#N)nc2)c(=NC#N)n4C)cc1N [Example 95, N-(8-(5-amino-6-methoxypyridin-3-yl)-1-(6-(2-cyanopropan-2-yl)pyridin-3-yl)-3-methyl-1H-imidazo[4,5-c]quinolin-2(3H)-ylidene)cyanamide] | ≤ 0.5 µM | ≤ 0.5 µM |  |  |
| 0.01 to 1 µM | Cc1cc(-c2ccc3ncc4c(c3c2)n(-c2ccc(C(C)(C)C#N)nc2)c(=NC#N)n4C)cnc1F [Example 78, N-(1-(6-(2-cyanopropan-2-yl)pyridin-3-yl)-8-(6-fluoro-5-methylpyridin-3-yl)-3-methyl-1H-imidazo[4,5-c]quinolin-2(3H)-ylidene)cyanamide] | ≤ 0.5 µM | ≤ 0.5 µM |  |  |
| 0.01 to 1 µM | Cn1c(=NC#N)n(-c2ccc(C(C)(C)C#N)nc2)c2c3cc(-c4ccc5cn[nH]c5c4)ccc3ncc21 [Example 77, N-(1-(6-(2-cyanopropan-2-yl)pyridin-3-yl)-8-(1H-indazol-6-yl)-3-methyl-1H-imidazo[4,5-c]quinolin-2(3H)-ylidene)cyanamide] | ≤ 0.5 µM | ≤ 0.5 µM |  |  |
